Measured values published in PubChem BioAssay AID280 (DTP/NCI, 2004).
“And” between values parts separate entries of the source, which are not always exact repeats. Equal entries are not always repeated. Toxic doses and inconclusive results are not listed.

Tested on: nude mice, LOX melanoma ip, survival T/C
Assay: NCI In Vivo Anticancer Drug Screen. Data for tumor model Human Amelanotic Melanoma (LOX) (intraperitoneal) in NU/NU BALB/C (nude) mice
Settings: endpoint: median survival time, higher = longer survival
Protocol: The antitumor activity of compounds was measured in mice bearing transplantable tumors. Survival or tumor size were measured and the results are expressed as the measurement made in the treated group (T) divided by the measurement made in the vehicle treated control group (C). The tumor model used in this assay is Human Amelanotic Melanoma (LOX) (intraperitoneal) in NU/NU BALB/C (nude) mice

[1] = dose: 25.0 mg/kg/injection, schedule: Q04DX003 (ip), vehicle: DMSO
[2] = dose: 50.0 mg/kg/injection, schedule: Q04DX003 (ip), vehicle: DMSO
[3] = dose: 50.0 mg/kg/injection, schedule: Q04DX003 (ip), vehicle: saline with Tween-80
[4] = dose: 100.0 mg/kg/injection, schedule: Q04DX003 (ip), vehicle: saline with Tween-80
[5] = dose: 200.0 mg/kg/injection, schedule: Q04DX003 (ip), vehicle: saline with Tween-80
[6] = dose: 75.0 mg/kg/injection, schedule: Q04DX003 (ip), vehicle: saline with Tween-80
[7] = dose: 150.0 mg/kg/injection, schedule: Q04DX003 (ip), vehicle: saline with Tween-80
[8] = dose: 600.0 mg/kg/injection, schedule: Q04DX003 (ip), vehicle: saline with Tween-80
[9] = dose: 25.0 mg/kg/injection, schedule: Q04DX003 (ip), vehicle: saline with Tween-80

O=C1C=CC2OC(c3ccccc3)C(O)C2O1 (stereo not drawn)
T/C (dose: 12.5 mg/kg/injection, schedule: Q04DX003 (ip), vehicle: DMSO): 105 % of control
T/C [1]: 103 % of control
T/C [2]: 103 % of control

CC(=O)OCC1OC(n2ncc(=O)[nH]c2=O)C(OC(C)=O)C1OC(C)=O (stereo not drawn)
T/C (dose: 75.0 mg/kg/injection, schedule: Q04DX003 (ip), vehicle: suspension in saline): 99 % of control
T/C (dose: 150.0 mg/kg/injection, schedule: Q04DX003 (ip), vehicle: suspension in saline): 105 % of control
T/C (dose: 300.0 mg/kg/injection, schedule: Q04DX003 (ip), vehicle: suspension in saline): 104 % of control
T/C (dose: 600.0 mg/kg/injection, schedule: Q04DX003 (ip), vehicle: suspension in saline): 99 % of control
T/C (dose: 1200.0 mg/kg/injection, schedule: Q04DX003 (ip), vehicle: suspension in saline): 95 % of control

NC(=O)c1[nH]cnc1O
T/C [3]: 95 % of control and 98 % of control
T/C [4]: 116 % of control and 100 % of control
T/C [5]: 104 % of control and 111 % of control
T/C (dose: 400.0 mg/kg/injection, schedule: Q04DX003 (ip), vehicle: saline with Tween-80): 96 % of control
T/C (dose: 800.0 mg/kg/injection, schedule: Q04DX003 (ip), vehicle: saline with Tween-80): 88 % of control

O=C1C2=C(C(=O)c3ncccc31)C1C=CC2CC1 (stereo not drawn)
T/C [1]: 99 % of control
T/C [2]: 103 % of control
T/C (dose: 100.0 mg/kg/injection, schedule: Q04DX003 (ip), vehicle: DMSO): 99 % of control
T/C (dose: 200.0 mg/kg/injection, schedule: Q04DX003 (ip), vehicle: DMSO): 89 % of control

c1ccc2c3c(c4c(c2c1)CN(C1CCCCC1)CO4)OCN(C1CCCCC1)C3
T/C (dose: 18.75 mg/kg/injection, schedule: Q04DX003 (ip), vehicle: water): 102 % of control
T/C (dose: 37.5 mg/kg/injection, schedule: Q04DX003 (ip), vehicle: water): 107 % of control
T/C (dose: 75.0 mg/kg/injection, schedule: Q04DX003 (ip), vehicle: water): 123 % of control

[CH3][Sn]([CH3])([Cl])[c]1cc[c]([Sn]([CH3])([CH3])[Cl])cc1
T/C (dose: 0.63 mg/kg/injection, schedule: Q04DX003 (ip), vehicle: saline): 91 % of control
T/C (dose: 1.25 mg/kg/injection, schedule: Q04DX003 (ip), vehicle: saline): 103 % of control
T/C (dose: 2.5 mg/kg/injection, schedule: Q04DX003 (ip), vehicle: saline): 98 % of control
T/C (dose: 5.0 mg/kg/injection, schedule: Q04DX003 (ip), vehicle: saline): 107 % of control

CN(C)N=Nc1ccc(C(N)=O)cc1
T/C (dose: 22.5 mg/kg/injection, schedule: Q04DX003 (ip), vehicle: saline with Tween-80): 99 % of control
T/C (dose: 45.0 mg/kg/injection, schedule: Q04DX003 (ip), vehicle: saline with Tween-80): 120 % of control
T/C (dose: 180.0 mg/kg/injection, schedule: Q04DX003 (ip), vehicle: saline with Tween-80): 153 % of control
T/C (dose: 360.0 mg/kg/injection, schedule: Q04DX003 (ip), vehicle: saline with Tween-80): 210 % of control

N[C@@H](Cc1ccc(N(CCCl)CCCl)cc1)C(=O)O
T/C (dose: 1.0 mg/kg/injection, schedule: Q01DX005 (ip), vehicle: water): 155 % of control
T/C (dose: 1.0 mg/kg/injection, schedule: Q01DX015 (ip), vehicle: water): 166 % of control
T/C (dose: 2.0 mg/kg/injection, schedule: Q01DX005 (ip), vehicle: water): 258 % of control
T/C (dose: 2.0 mg/kg/injection, schedule: Q01DX015 (ip), vehicle: water): 218 % of control
T/C (dose: 2.5 mg/kg/injection, schedule: Q01DX001 (ip), vehicle: water): 171 % of control
T/C (dose: 2.5 mg/kg/injection, schedule: Q04DX003 (ip), vehicle: water): 162 % of control
T/C (dose: 4.0 mg/kg/injection, schedule: Q01DX005 (ip), vehicle: water): 344 % of control
T/C (dose: 4.0 mg/kg/injection, schedule: Q01DX015 (ip), vehicle: water): 344 % of control
T/C (dose: 5.0 mg/kg/injection, schedule: Q01DX001 (ip), vehicle: water): 188 % of control
T/C (dose: 5.0 mg/kg/injection, schedule: Q04DX003 (ip), vehicle: water): 241 % of control
T/C (dose: 6.0 mg/kg/injection, schedule: Q04DX003 (ip), vehicle: saline): 111 % of control and 203 % of control
T/C (dose: 8.0 mg/kg/injection, schedule: Q01DX005 (ip), vehicle: water): 344 % of control
T/C (dose: 9.0 mg/kg/injection, schedule: Q04DX003 (ip), vehicle: saline): 122 % of control and 203 % of control
T/C (dose: 10.0 mg/kg/injection, schedule: Q01DX001 (ip), vehicle: water): 344 % of control
T/C (dose: 10.0 mg/kg/injection, schedule: Q04DX003 (ip), vehicle: water): 344 % of control
T/C (dose: 20.0 mg/kg/injection, schedule: Q01DX001 (ip), vehicle: water): 344 % of control
T/C (dose: 20.0 mg/kg/injection, schedule: Q04DX003 (ip), vehicle: water): 97 % of control

O=C1c2ccccc2C(Cl)(c2ccc(Cl)cc2)c2ccc(Cl)cc21 (stereo not drawn)
T/C [6]: 93 % of control
T/C [7]: 116 % of control
T/C (dose: 300.0 mg/kg/injection, schedule: Q04DX003 (ip), vehicle: saline with Tween-80): 92 % of control
T/C [8]: 87 % of control
T/C (dose: 1200.0 mg/kg/injection, schedule: Q04DX003 (ip), vehicle: saline with Tween-80): 93 % of control

Cc1ccc(C(=Nc2ccccc2)N=P(c2ccccc2)(c2ccccc2)c2ccccc2)cc1
T/C (dose: 12.5 mg/kg/injection, schedule: Q04DX003 (ip), vehicle: saline with Tween-80): 106 % of control
T/C [9]: 115 % of control
T/C [3]: 119 % of control
T/C [4]: 104 % of control

O=C(CCCN1CCC(C(O)c2ccc(F)cc2)CC1)c1ccc(F)cc1 (stereo not drawn)
T/C (dose: 6.25 mg/kg/injection, schedule: Q01DX009 (ip), vehicle: saline with Tween-80): 95 % of control
T/C (dose: 12.5 mg/kg/injection, schedule: Q01DX009 (ip), vehicle: saline with Tween-80): 107 % of control
T/C (dose: 12.5 mg/kg/injection, schedule: Q01DX009 (oral), vehicle: saline with Tween-80): 109 % of control
T/C (dose: 25.0 mg/kg/injection, schedule: Q01DX009 (ip), vehicle: saline with Tween-80): 101 % of control
T/C (dose: 25.0 mg/kg/injection, schedule: Q01DX009 (oral), vehicle: saline with Tween-80): 99 % of control
T/C (dose: 50.0 mg/kg/injection, schedule: Q01DX009 (ip), vehicle: saline with Tween-80): 115 % of control
T/C (dose: 50.0 mg/kg/injection, schedule: Q01DX009 (oral), vehicle: saline with Tween-80): 107 % of control
T/C (dose: 100.0 mg/kg/injection, schedule: Q01DX009 (oral), vehicle: saline with Tween-80): 107 % of control

CN(C)CCC(=O)C(=Cc1ccc(O)cc1)C(=O)CCN(C)C
T/C (dose: 18.75 mg/kg/injection, schedule: Q04DX003 (ip), vehicle: saline): 100 % of control
T/C (dose: 37.5 mg/kg/injection, schedule: Q04DX003 (ip), vehicle: saline): 101 % of control
T/C (dose: 75.0 mg/kg/injection, schedule: Q04DX003 (ip), vehicle: saline): 112 % of control
T/C (dose: 150.0 mg/kg/injection, schedule: Q04DX003 (ip), vehicle: saline): 107 % of control
T/C (dose: 300.0 mg/kg/injection, schedule: Q04DX003 (ip), vehicle: saline): 103 % of control

CCC(=O)Sc1ccccc1C(=O)Nc1ccc(Cl)cc1
T/C [9]: 99 % of control
T/C [3]: 107 % of control
T/C [4]: 110 % of control
T/C [5]: 113 % of control

COc1cc(C(C)c2cc3c(cc2OCCO)OCO3)cc(OC)c1OC (stereo not drawn)
T/C [6]: 114 % of control
T/C [7]: 94 % of control
T/C [8]: 152 % of control

Cc1cc(O)c2c(c1O)C(=O)C13C(=C2O)C(=O)C2C(O)C1C1C(O)C3C(=O)C3=C(O)c4c(O)cc(C)c(O)c4C(=O)C321 (stereo not drawn)
T/C (dose: 6.25 mg/kg/injection, schedule: Q04DX003 (ip), vehicle: saline with Tween-80): 114 % of control

CCOc1ccc(C(C)c2cc3c(cc2OC)OCO3)cc1 (stereo not drawn)
T/C (dose: 150.0 mg/kg/injection, schedule: Q04DX003 (ip), vehicle: distilled water + Tween-80): 177 % of control
T/C (dose: 300.0 mg/kg/injection, schedule: Q04DX003 (ip), vehicle: distilled water + Tween-80): 161 % of control and 163 % of control
T/C (dose: 600.0 mg/kg/injection, schedule: Q04DX003 (ip), vehicle: distilled water + Tween-80): 226 % of control and 252 % of control
